{"source": "patent US20250129012A1", "about": "“ANTI-INFLAMMATORY AND ANALGESIC COMPOUNDS AND USE THEREOF” (JIANGSU ATOM BIOSCIENCE AND PHARMACEUTICAL CO., LTD., priority 2021, published 2025)", "key": {"[1]": {"system": "novel coronavirus infection", "conditions": "cited from earlier work"}, "[2]": {"system": "gouty arthritis in rats (urate crystals, left ankle joint)", "assay": "Pharmacodynamics experiment A on gouty arthritis in rats: pain score", "assay_type": "in vivo, SD rats", "set-up": "Pain score: scale not given here", "conditions": "0.6 mg/kg gavage; for Pain score: Mean ± SEM", "description": "Compounds 2, 17, 26 and 27 were prepared by grinding with 0.5% CMC-Na into a suspension of the corresponding concentration (0.06 mg/mL) for gavage before administration, and the volume of administration was 10 mL/kg. […] Before use, 0.5% CMC-Na was used for grinding and prepared into a suspension of the corresponding concentration (0.06 mg/mL) for gavage, and the volume of drug administered was 10 mL/kg.\nEach group of subjects was prepared into a suspension of the corresponding concentration, and the administration volume was 10 mL/kg.\nThe crystalline arthritis model was prepared by intra-articular injection of urate crystals (40 mg/mL, in the left ankle joint of each rat). Different doses of the test drug were given separately by gavage administration. The day of administration was defined as day 1 of the experiment, and the drug was administered once a day for 10 consecutive days (pre-administration of the drug for 7 days prior to modeling, modeling on day 8, and continuation of the drug for 3 days). The experiment ended on day 10.\nThe pain level was scored using the flexion and extension joint pain test scoring method at the same time point.\nThe data obtained from the experiment were statistically analyzed using IBM SPSS Statistics 22.0. All measurements were expressed as Mean±S.E.M s. The data were analyzed using SPSS 22.0 statistical software and variance chi-square test was performed on the parameters."}, "[3]": {"assay": "In vivo pharmacokinetics in SD rats", "conditions": "for AUC(0-inf): read-out: AUCINF; for MRT inf: read-out: MRTINF", "in_short": "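SD rats received compound intravenously (0.5 mg/mL solution) or by oral gavage (1 mg/mL, fasted overnight), both formulated in DMSO/Solutol HS15/saline. Plasma compound concentrations were measured by LC/MS/MS. Non-compartmental parameters were then calculated.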"}, "[4]": {"assay": "Acute toxicity test in mice by single administration", "assay_type": "in vivo, ICR mice", "conditions": "both sexes, ICR, mouse, in vivo, po; acute toxicity, mice, single gavage; read-out: Maximum tolerated dose (MTD)", "description": "(§1) Compounds 34, 48, 55 and 58 were ground with 0.5% CMC-Na before administration, and prepared into a suspension of the corresponding concentration for gavage, with an administration volume of 0.1 mL/10 g.\n(§2) ICR mice, SPF grade, weighing 18-20 g, 6-8 weeks old, were provided by Nantong University. The Laboratory Animal Production License was SCXK (Su) 2016-0010 and Laboratory Animal Use License was SYXK (Su) 2017-0035.\n(§3) After overnight fasting, the drug was administered once by gavage in a volume of 0.1 mL/10 g. The normal group was given the corresponding volume of 0.5% CMC-Na solution according to body weight. The state of the animal was observed after administration, the animals were weighed daily and the number of deaths was recorded for 14 consecutive days."}, "ICR mice": {"system": "ICR mice", "assay": "Acute toxicity test in mice by single administration", "assay_type": "in vivo", "conditions": "single gavage dose 50 mg/kg; 14 days; deaths/animals", "description": "as §1, §2, §3"}, "IL-6": {"system": "IL-6", "assay": "Inflammatory factor experiment B: IL-6 in knee synovial tissue (ELISA)", "assay_type": "in vivo, SD rats"}, "[5]": {"conditions": "4,159 patients with nasopharyngeal nucleic acid test"}, "[6]": {"conditions": "Sprague-Dawley, rat, in vivo, po, Gavage - 10 mg/kg"}, "[7]": {"conditions": "Sprague-Dawley, rat, in vivo, Intravenous injection - 1 mg/kg"}}, "note": "Like-named read-outs stand apart in the source and are kept apart here.", "data": [{"molecule": "COc1cc2c(c(OC)c1OC)-c1ccc(OC)c(=O)cc1[C@@H](NC(C)=O)CC2", "note": "[colchicine, reference compound]", "values": [{"measurement": "Reduction of hospital admissions", "setting": "[1]; [5]", "value": 25, "unit": "%"}, {"measurement": "Reduction of need for respiratory equipment", "setting": "[1]; [5]", "value": 50, "unit": "%"}, {"measurement": "Reduction of number of deaths", "setting": "[1]; [5]", "value": 44, "unit": "%"}, {"measurement": "Lower risk of hospitalization or death compared with placebo", "setting": "[1]; 4,488 non-hospitalized patients", "value": 21, "unit": "%"}, {"measurement": "Pain versus model group, in words", "setting": "[2]; time points after modeling, P<0.05 or P<0.01", "value": "improved the pain at 2 h, 8 h, 24 h, and 48 h"}, {"measurement": "Pain score", "setting": "[2]; 2 h after modeling", "value": "3.30 ± 0.60"}, {"measurement": "Pain score", "setting": "[2]; 4 h after modeling", "value": "2.90 ± 0.71"}, {"measurement": "Pain score", "setting": "[2]; 8 h after modeling", "value": "3.20 ± 0.61"}, {"measurement": "Pain score", "setting": "[2]; 10 h after modeling", "value": "2.60 ± 0.70"}, {"measurement": "Pain score", "setting": "[2]; 24 h after modeling", "value": "1.40 ± 0.58"}, {"measurement": "Pain score", "setting": "[2]; 48 h after modeling", "value": "0.80 ± 0.44"}, {"measurement": "Pain score", "setting": "[2]; before modeling", "value": "0.00 ± 0.00"}, {"measurement": "F", "setting": "[3]; Gavage - 10 mg/kg, calculated by AUCINF", "value": 8.73, "unit": "%"}, {"measurement": "AUC(0-inf)", "setting": "[3]; [6]", "value": 735, "unit": "ng·h/mL"}, {"measurement": "Cmax", "setting": "[3]; Sprague-Dawley, rat, in vivo, po, Gavage - 10 mg/kg, read-out: Cmax", "value": 175, "unit": "ng/mL"}, {"measurement": "MRT inf", "setting": "[3]; [6]", "value": 25.7, "unit": "h"}, {"measurement": "Tmax", "setting": "[3]; Sprague-Dawley, rat, in vivo, po, Gavage - 10 mg/kg, read-out: Tmax", "value": 0.417, "unit": "h"}, {"measurement": "AUC(0-inf)", "setting": "[3]; [7]", "value": 567, "unit": "ng·h/mL"}, {"measurement": "clearance", "setting": "[3]; Sprague-Dawley, rat, in vivo, Intravenous injection - 1 mg/kg, read-out: CL (converted)", "value": 31.8, "unit": "mL/min/kg"}, {"measurement": "MRT inf", "setting": "[3]; [7]", "value": 11, "unit": "h"}, {"measurement": "Vd", "setting": "[3]; Sprague-Dawley, rat, in vivo, Intravenous injection - 1 mg/kg, read-out: VSS", "value": 17.6, "unit": "L/kg"}, {"measurement": "MTD at 14 days", "setting": "[4]", "value": "< 50", "unit": "mg/kg"}, {"measurement": "Mortality rate", "setting": "ICR mice", "value": "3/6"}, {"measurement": "inhibition in vivo at 0.6 mg/kg", "setting": "IL-6; Rattus norvegicus, po, synovial tissue of knee joints, 48 h after modeling, dose 0.6 mg/kg, read-out: IL-6 percentage decrease %", "value": 83.5, "unit": "%"}, {"measurement": "inhibition in vivo at 1.2 mg/kg", "setting": "IL-6; Rattus norvegicus, po, synovial tissue of knee joints, 48 h after modeling, dose 1.2 mg/kg (high dose group), read-out: IL-6 percentage decrease %", "value": 96.3, "unit": "%"}, {"measurement": "IL-6 level after modeling, in words", "setting": "IL-6; compounds 0.6 mg/kg, colchicine 0.6 and 1.2 mg/kg", "value": "could reduce the IL-6 level"}]}]}
